{"source": "patent US20190038588A1", "about": "“NOVEL CLASS OF COMPOUNDS FOR THE TREATMENT OF CARDIOVASCULAR DISEASE” (STICHTING KATHOLIEKE UNIVERSITEIT, priority 2016, published 2019)", "key": {"HMG-CoA reductase": {"target": "T1, HMG-CoA reductase (Homo sapiens, UniProt P04035)", "T1 sequence (P04035 1-888)": "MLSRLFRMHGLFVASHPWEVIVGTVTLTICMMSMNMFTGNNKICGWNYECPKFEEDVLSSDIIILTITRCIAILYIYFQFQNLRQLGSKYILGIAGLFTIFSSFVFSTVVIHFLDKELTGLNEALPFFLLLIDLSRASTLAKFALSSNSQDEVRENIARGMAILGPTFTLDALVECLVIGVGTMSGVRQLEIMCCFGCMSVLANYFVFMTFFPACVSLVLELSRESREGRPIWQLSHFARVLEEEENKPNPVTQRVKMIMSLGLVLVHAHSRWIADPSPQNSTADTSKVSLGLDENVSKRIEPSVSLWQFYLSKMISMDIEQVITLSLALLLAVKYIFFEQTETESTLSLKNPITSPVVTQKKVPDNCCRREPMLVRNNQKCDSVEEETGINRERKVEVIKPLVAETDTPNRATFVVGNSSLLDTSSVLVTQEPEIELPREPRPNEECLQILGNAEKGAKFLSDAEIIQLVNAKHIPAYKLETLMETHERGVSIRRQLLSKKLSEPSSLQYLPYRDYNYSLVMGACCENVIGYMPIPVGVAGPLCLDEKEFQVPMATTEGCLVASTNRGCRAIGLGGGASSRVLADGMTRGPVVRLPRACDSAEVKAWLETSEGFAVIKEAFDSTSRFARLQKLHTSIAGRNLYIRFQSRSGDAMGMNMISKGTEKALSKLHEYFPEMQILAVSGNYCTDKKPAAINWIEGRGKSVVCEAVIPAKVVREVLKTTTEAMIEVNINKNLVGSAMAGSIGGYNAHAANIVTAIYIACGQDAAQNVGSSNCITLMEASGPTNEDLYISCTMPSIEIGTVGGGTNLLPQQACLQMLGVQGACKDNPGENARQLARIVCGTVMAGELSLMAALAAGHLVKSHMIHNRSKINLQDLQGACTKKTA", "details": "Kajinami K, 2003; Istvan ES, 2001; cited from earlier work"}, "[1]": {"target": "T2, catalytic domain of the human HMG-CoA reductase (Homo sapiens, UniProt P04035)", "T2 construct": "containing the catalytic domain of the human HMG-CoA reductase; purchased Sigma-Aldrich CS-1090", "T2 sequence (P04035 426-888 limits assumed)": "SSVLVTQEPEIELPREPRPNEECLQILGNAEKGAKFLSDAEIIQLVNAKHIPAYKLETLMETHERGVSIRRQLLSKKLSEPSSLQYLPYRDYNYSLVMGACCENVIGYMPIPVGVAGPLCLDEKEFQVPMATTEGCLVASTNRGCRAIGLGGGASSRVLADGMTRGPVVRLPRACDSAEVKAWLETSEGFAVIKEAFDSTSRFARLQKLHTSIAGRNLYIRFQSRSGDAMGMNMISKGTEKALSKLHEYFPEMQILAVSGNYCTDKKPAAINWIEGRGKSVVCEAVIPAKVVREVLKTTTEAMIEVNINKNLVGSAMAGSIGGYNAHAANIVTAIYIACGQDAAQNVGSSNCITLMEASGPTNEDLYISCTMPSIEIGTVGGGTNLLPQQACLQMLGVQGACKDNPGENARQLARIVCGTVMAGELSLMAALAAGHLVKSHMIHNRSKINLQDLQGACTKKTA", "assay": "HMG-CoA reductase activity and inhibition assay (Sigma CS-1090 kit, NADPH oxidation at 340 nm)", "assay_type": "biochemical", "details": "for HMGR activity (% of control) Mean (SEM): compound at 300 nM, n = 3 independent experiments", "procedure": "The human HMG-CoA reductase activity and inhibition assays were performed using the HMG-CoA reductase Assay Kit from Sigma-Aldrich (Sigma CS-1090), containing the catalytic domain of the human HMG-CoA reductase. Enzyme activity was determined spectrophotometrically, measuring the oxidation of NADPH at 340 nm. The reaction mixture contained: 0.13 mM HMG-CoA, HMG-CoA reductase, and 50 mM Tris-HCl, (pH 7.5). After 15 min incubation at 37° C., the reaction was started with the addition of 0.13 mM NADPH, and monitored for 30 min. The enzyme activity was determined using the linear domain of the curve. These experiments were generally performed in small reaction volumes to increase throughput. Experiments in larger reaction volumes can improve reliability of obtained values, and are planned."}, "[2]": {"target": "T3, mitochondrial complex III (Mus musculus, UniProt P00158)", "T3 construct": "the supernatant containing the mitochondria was pelleted at 14,000 g; endogenous in cells; host or cells: C2C12 cells, mitochondrial fraction", "assay": "Complex III enzyme activity in mitochondrial fractions of C2C12 cells (cytochrome c reduction at 550 nm)", "assay_type": "biochemical", "details": "compound at 100 μM; background by antimycin A (2.5 μM); n = 3 independent experiments", "procedure": "C2C12 pellets of 20·10^6 cells were snap frozen in liquid nitrogen and kept at −80° C. until use. For preparation of the mitochondrial fractions, tissues and cells were homogenized, resuspended in 10 mM Tris-HCl (pH 7.6), and snap frozen in aliquots as follows: cells were resuspended in 10 mM Tris-HCl and pottered, and sucrose was added (215 mM). The lysate was cleared of unbroken cells by centrifugation (10 minutes 600 g) after which the supernatant containing the mitochondria was pelleted at 14,000 g for 10 minutes, resuspended in 10 mM Tris-HCl (pH 7.6), and snap frozen in aliquots. Complex III enzyme activity was measured spectrophotometrically in duplicate as described before by determination of the cytochrome c reduction at 550 nm (Janssen et al., 2007; Mourmans et al., 1997; Rodenburg, 2011). For these measurements the following substrates were used: decylubiquinol (300 μM) and cytochrome c (50 μM). Background substraction was based on decylubiquinol auto-oxidation rates for FIG. 2, and on antimycin A (2.5 μM) for table 4. The enzyme activity was determined using the linear domain of the curve. These experiments were generally performed in small reaction volumes to increase throughput. Experiments in larger reaction volumes can improve reliability of obtained values, and are planned."}}, "note": "pIC50: −log10 of the molar value.", "data": [{"compound": "O=C(O)C[C@H](O)C[C@H](O)/C=C/c1c(C2CC2)nc2ccccc2c1-c1ccc(F)cc1", "note": "[pitavastatine]", "values": [{"measurement": "pIC50", "setting": "HMG-CoA reductase", "value": 8.15}]}, {"compound": "CC(C)c1nc(N(C)S(C)(=O)=O)nc(-c2ccc(F)cc2)c1/C=C/[C@@H](O)C[C@@H](O)Cc1nc(=O)o[nH]1", "note": "[rosuvastatin oxo-oxadiazole, N-(5-((3S,5S,E)-3,5-dihydroxy-6-(5-oxo-2,5-dihydro-1,2,4-oxadiazol-3-yl)hex-1-en-1-yl)-4-(4-fluorophenyl)-6-isopropylpyrimidin-2-yl)-N-methylmethane Sulfonamide]", "values": [{"measurement": "HMGR activity (% of control) Mean (SEM)", "setting": "[1]", "value": "88.17 (4.21) % of control"}, {"measurement": "complex III activity (% of control) Mean (SEM)", "setting": "[2]", "value": "85.85 (10.62) % of control"}]}, {"compound": "CC(C)c1nc(N(C)S(C)(=O)=O)nc(-c2ccc(F)cc2)c1/C=C/[C@@H](O)C[C@@H](O)Cc1nnn[nH]1", "note": "[rosuvastatin tetrazole, N-(5-((3S,5S,E)-3,5-dihydroxy-6-(1H-tetrazol-5-yl)hex-1-en-1-yl)-4-(4-fluorophenyl)-6-isopropylpyrimidin-2-yl)-N-methylmethanesulfonamide]", "values": [{"measurement": "HMGR activity (% of control) Mean (SEM)", "setting": "[1]", "value": "81.28 (4.70) % of control"}, {"measurement": "complex III activity (% of control) Mean (SEM)", "setting": "[2]", "value": "85.24 (4.09) % of control"}]}, {"compound": "CCC(C)(C)C(=O)O[C@H]1C[C@@H](C)C=C2C=C[C@H](C)[C@H](CC[C@@H](O)C[C@@H](O)CC(N)=O)[C@H]21", "note": "[simvastatin amide, (1S,3R,7S,8S,8aR)-8-((3R,5R)-7-amino-3,5-dihydroxy-7-oxoheptyl)-3,7-dimethyl-1,2,3,7,8,8a-hexahydronaphthalen-1-yl 2,2-dimethylbutanoate]", "values": [{"measurement": "HMGR activity (% of control) Mean (SEM)", "setting": "[1]", "value": "110.10 (11.81) % of control"}, {"measurement": "complex III activity (% of control) Mean (SEM)", "setting": "[2]", "value": "73.77 (7.57) % of control"}]}, {"compound": "CCC(C)(C)C(=O)O[C@H]1C[C@@H](C)C=C2C=C[C@H](C)[C@H](CC[C@@H](O)C[C@@H](O)CC(=O)NO)[C@H]21", "note": "[simvastatin hydroxamic acid, (1S,3R,7S,8S,8aR)-8-((3R,5R)-3,5-dihydroxy-7-(hydroxyamino)-7-oxoheptyl)-3,7-dimethyl-1,2,3,7,8,8a-hexahydronaphthalen-1-yl 2,2-dimethylbutanoate]", "values": [{"measurement": "HMGR activity (% of control) Mean (SEM)", "setting": "[1]", "value": "38.83 (5.19) % of control"}, {"measurement": "pIC50", "setting": "[1]; dose-response curve of FIG. 2C, 95%-CI printed in the row below", "value": 7.41}, {"measurement": "complex III activity (% of control) Mean (SEM)", "setting": "[2]", "value": "68.59 (5.73) % of control"}]}, {"compound": "CCC(C)(C)C(=O)O[C@H]1C[C@@H](C)C=C2C=C[C@H](C)[C@H](CC[C@@H](O)C[C@@H](O)CC(=O)NC)[C@H]21", "note": "[simvastatin methylamide, (1S,3R,7S,8S,8aR)-8-((3R,5R)-3,5-dihydroxy-7-(methylamino)-7-oxoheptyl)-3,7-dimethyl-1,2,3,7,8,8a-hexahydronaphthalen-1-yl 2,2-dimethylbutanoate]", "values": [{"measurement": "HMGR activity (% of control) Mean (SEM)", "setting": "[1]", "value": "92.40 (8.84) % of control"}, {"measurement": "complex III activity (% of control) Mean (SEM)", "setting": "[2]", "value": "50.43 (5.71) % of control"}]}, {"compound": "CCC(C)(C)C(=O)O[C@H]1C[C@@H](C)C=C2C=C[C@H](C)[C@H](CC[C@@H](O)C[C@@H](O)CC#N)[C@H]21", "note": "[simvastatin nitrile, (1S,3R,7S,8S,8aR)-8-((3R,5S)-6-cyano-3,5-dihydroxyhexyl)-3,7-dimethyl-1,2,3,7,8,8a-hexahydronaphthalen-1-yl 2,2-dimethylbutanoate]", "values": [{"measurement": "HMGR activity (% of control) Mean (SEM)", "setting": "[1]", "value": "85.05 (10.36) % of control"}, {"measurement": "complex III activity (% of control) Mean (SEM)", "setting": "[2]", "value": "53.24 (1.53) % of control"}]}, {"compound": "CCC(C)(C)C(=O)O[C@H]1C[C@@H](C)C=C2C=C[C@H](C)[C@H](CC[C@@H](O)C[C@@H](O)Cc3nc(=O)o[nH]3)[C@H]21", "note": "[simvastatin oxo-oxadiazole, (1S,3R,7S,8S,8aR)-8-((3R,5)-3,5-dihydroxy-6-(5-oxo-2,5-dihydro-1,2,4-oxadiazol-3-yl)hexyl)-3,7-dimethyl-1,2,3,7,8,8a-hexahydronaphthalen-1-yl 2,2-dimethylbutanoate]", "values": [{"measurement": "HMGR activity (% of control) Mean (SEM)", "setting": "[1]", "value": "73.44 (2.81) % of control"}, {"measurement": "complex III activity (% of control) Mean (SEM)", "setting": "[2]", "value": "74.37 (4.20) % of control"}]}, {"compound": "CCC(C)(C)C(=O)O[C@H]1C[C@@H](C)C=C2C=C[C@H](C)[C@H](CC[C@@H](O)C[C@@H](O)Cc3nnn[nH]3)[C@H]21", "note": "[simvastatin tetrazole, (1S,3R,7S,8S,8aR)-8-((3R,5S)-3,5-dihydroxy-6-(1H-tetrazol-5-yl)hexyl)-3,7-dimethyl-1,2,3,7,8,8a-hexahydronaphthalen-1-yl 2,2-dimethylbutanoate]", "values": [{"measurement": "HMGR activity (% of control) Mean (SEM)", "setting": "[1]", "value": "72.43 (4.97) % of control"}, {"measurement": "complex III activity (% of control) Mean (SEM)", "setting": "[2]", "value": "80.37 (5.13) % of control"}]}]}
